Source: patent US20030100769A1, “Cyclic amidine compounds” (priority 2000, published 2003)

Biological target: α1β1γδ subtype of nicotinic acetylcholine receptors (Rattus norvegicus, UniProt P18916+P25108+P25109+P25110)
Assay: biochemical
Format: binding
Details: for remaining activity at 100 µM: read-out: control % of [3H]-α-Bgt binding at 100 μM of test compound; for remaining activity at 1000 µM: read-out: control % of [3H]-α-Bgt binding at 1,000 μM of test compound
From the text: The methods for evaluating the binding capabilities of the compounds at nicotinic acetylcholine receptors are different by subtypes of receptors. The binding capabilities of the compounds at α4β2 nicotinic acetylcholine receptors are examined using rat brain membrane obtained from whole homogenized brain, and determining the inhibiting rate of the compounds against [^3H]-cytisine binding to said brain membrane. Furthermore, the binding capabilities of the compounds at α1β1γδ nicotinic acetylcholine receptors are examined using homogenized rat muscle, and determining the inhibiting rate of the compounds against [^3H]-α-bungarotoxin binding to said muscle homogenate.
Binding Assays at α1β1γδ Subtype of Nicotinic Acetylcholine Receptors
The affinity of the compounds of the present invention to α1β1γδ subtype of nicotinic acetylcholine receptors was measured by the following method, which was modified method described by Garcha H. S., Thomas P., Spivak C.
(1) Preparation of Rat Skeletal Muscles Containing α1β1γδ Subtype of Nicotinic Acetylcholine Receptors
The substantially same animals described in the Biological Experiment 1 were used.
The isolation of α1β1γδ subtype of nicotinic acetylcholine receptors was performed as follow. That is, rat posterior skeletal muscles were isolated just after sacrificed by decapitation, washed with ice-cooled saline solution and then frozen at −80° C. with liquid nitrogen and stored till using. After thawing the frozen muscles, tissue was homogenized ([…]) with buffer solution [2.5 mM of sodium phosphate buffer (pH:7.2), 90 mM of NaCl, 2 mM of KCl, 1 mM of EDTA, 2 mM of benzamidine, 0.1 mM of benzethonium chloride, 0.1 mM of PMSF, 0.01% of sodium azide] in Waring blender (Waring blender 34BL97; WARING PRODUCTS DIVISION DYNAMICS CORPORATION OF AMERICA) for 60 seconds. The homogenate were centrifuged under 20,000×G for 60 minutes at 4° C. The supernatant was separated and the resulting pellet was added to the same buffer (1.5 ml/g wet weight), and homogenized under the same conditions. Triton X100 (2% w/v) was added and the mixture was stirred for 3 hours at 4° C. The centrifugation at 100,000×G for 60 minutes at 4° C. yielded the rat muscle extract as supernatant. This was stored at 4° C. for up to 4 weeks, and used for binding assays at receptors.
(2) Experiments of α1β1γδ Subtype of Nicotinic Acetylcholine Receptors Binding
Receptors binding experiments were performed as follow. That is, the extract of rat muscle containing 600-900 μg of protein was added to test tubes containing test compounds and incubated for 15 minutes at 37° C. Then, to this mixture was added 1 nM of [^3H]-α-bungarotoxin (α-Bgt) and further incubated for 2 hours. The samples were isolated by vacuum filtration onto Whatman GF/B filters, which were prerinsed with 0.5% polyethylenimine just prior to sample filtration, using Brandel multi manifold cell harvester. The filters were rapidly rinsed with washing solution (10 mM of KH2PO4, 150 mM of NaCl, pH 7.2, room temperature) (5×1 ml). The filters were counted in 3 ml of clearsol I (Nacalai Tesque Inc.). The determination of nonspecific binding was incubated in the presence of 1 μM α-Bgt. […] In the receptor binding experiments, said buffer solution was added for adjusting the final concentration of BSA to be 0.05%.
The analyses of the experimental results were conducted by the same way as described in the Biological Experiment 1.

Chain of α1β1γδ subtype of nicotinic acetylcholine receptors (P25109 24-501): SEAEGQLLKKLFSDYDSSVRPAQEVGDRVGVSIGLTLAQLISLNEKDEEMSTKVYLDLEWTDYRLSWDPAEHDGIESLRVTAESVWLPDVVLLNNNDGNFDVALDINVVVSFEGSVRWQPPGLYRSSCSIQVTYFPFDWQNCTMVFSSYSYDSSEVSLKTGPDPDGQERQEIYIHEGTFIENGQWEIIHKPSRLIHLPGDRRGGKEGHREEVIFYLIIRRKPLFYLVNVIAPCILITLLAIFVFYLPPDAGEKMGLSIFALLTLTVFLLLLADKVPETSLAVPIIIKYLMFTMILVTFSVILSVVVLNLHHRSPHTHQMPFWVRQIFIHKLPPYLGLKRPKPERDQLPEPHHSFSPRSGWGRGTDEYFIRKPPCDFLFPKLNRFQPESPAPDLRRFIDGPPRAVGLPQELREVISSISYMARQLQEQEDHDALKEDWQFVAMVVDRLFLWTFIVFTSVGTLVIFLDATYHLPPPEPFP
Chain of α1β1γδ subtype of nicotinic acetylcholine receptors (P25110 22-517): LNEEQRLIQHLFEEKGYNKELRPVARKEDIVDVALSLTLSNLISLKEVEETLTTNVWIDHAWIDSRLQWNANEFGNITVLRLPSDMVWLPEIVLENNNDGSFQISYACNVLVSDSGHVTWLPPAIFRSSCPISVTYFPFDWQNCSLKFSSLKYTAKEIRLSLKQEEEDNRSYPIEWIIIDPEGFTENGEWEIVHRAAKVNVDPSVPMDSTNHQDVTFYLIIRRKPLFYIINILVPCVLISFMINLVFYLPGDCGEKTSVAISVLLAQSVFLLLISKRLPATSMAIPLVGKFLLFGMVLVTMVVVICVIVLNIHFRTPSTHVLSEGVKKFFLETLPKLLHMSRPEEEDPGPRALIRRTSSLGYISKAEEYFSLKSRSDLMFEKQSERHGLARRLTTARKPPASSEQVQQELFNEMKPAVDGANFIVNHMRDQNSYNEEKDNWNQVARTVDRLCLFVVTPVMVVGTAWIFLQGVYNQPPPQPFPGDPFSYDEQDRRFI
Chain of α1β1γδ subtype of nicotinic acetylcholine receptors (P25108 21-457): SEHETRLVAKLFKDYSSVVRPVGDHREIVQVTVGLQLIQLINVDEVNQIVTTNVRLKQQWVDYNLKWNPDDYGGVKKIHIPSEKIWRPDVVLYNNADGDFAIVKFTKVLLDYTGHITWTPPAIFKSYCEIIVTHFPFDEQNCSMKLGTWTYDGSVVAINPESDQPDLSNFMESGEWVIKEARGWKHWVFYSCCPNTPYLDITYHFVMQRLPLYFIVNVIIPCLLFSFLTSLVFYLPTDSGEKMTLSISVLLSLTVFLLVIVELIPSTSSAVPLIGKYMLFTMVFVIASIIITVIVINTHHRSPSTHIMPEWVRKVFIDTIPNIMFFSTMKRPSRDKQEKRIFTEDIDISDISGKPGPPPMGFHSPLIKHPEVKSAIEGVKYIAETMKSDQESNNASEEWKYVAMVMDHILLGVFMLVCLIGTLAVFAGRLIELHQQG

CN1CCN=C1c1ccc(Cl)nc1 [Compound 3, 2-(6-chloro-3-pyridyl)-1-methyl-2-imidazoline]
remaining activity at 100 µM: 34% | remaining activity at 1000 µM: 5%

Clc1ccc(C2=NCCCN2)cn1 [Compound 2, 2-(6-chloro-3-pyridyl)-1,4,5,6-tetrahydropyrimidine]
remaining activity at 100 µM: 34% | remaining activity at 1000 µM: 6%

Clc1ncc(C2=NCCCN2)s1 [Compound 22, 2-(2-chloro-5-thiazolyl)-1,4,5,6-tetrahydropyrimidine]
remaining activity at 100 µM: 23% | remaining activity at 1000 µM: -4%
